Patent US8268751B2, “Combination of active substances with insecticidal properties” (Bayer Cropscience AG, priority 2003, dated 2012)

Experiments:
Format in all cases: in vivo
[1] = test system: Myzus persicae; experiment: Myzus persicae test (cabbage leaf dip)
From the text: (§1) The expected action for a given combination of two active compounds can be calculated as follows, according to S. R. Colby, Weeds 15 (1967), 20-22:
(§2) If • X is the kill rate, expressed as a percentage of the untreated control, when employing active compound A at an application rate of m g/ha or in a concentration of m ppm, • Y is the kill rate, expressed as a percentage of the untreated control, when employing active compound B at an application rate of n g/ha or in a concentration of n ppm and • E is the kill rate, expressed as a percentage of the untreated control, when employing active compounds A and B at application rates of m and n g/ha or in a concentration of m and n ppm, then
(§3) If the actual insecticidal kill rate exceeds the calculated value, the action of the combination is superadditive, i.e. a synergistic effect is present. In this case, the actually observed kill rate must exceed the value calculated using the above formula for the expected kill rate (E).
(§4) To produce a suitable preparation of active compound, 1 part by weight of active compound is mixed with the stated amounts of solvent and emulsifier, and the concentrate is diluted with emulsifier-containing water to the desired concentration.
Cabbage leaves (Brassica oleracea) which are heavily infested by the green peach aphid (Myzus persicae) are treated by being dipped into the preparation of active compound of the desired concentration.
After the desired period of time, the kill in % is determined. 100% means that all aphids have been killed; 0% means that none of the aphids have been killed. The kill rates determined are calculated using Colby's formula (see page 39).

[2] = test system: Plutella xylostella, resistant strain; experiment: Plutella-xylostella test (resistant strain), cabbage leaf dip
From the text: as §1, §2, §3
Plutella-xylostella Test (Resistant Strain)
as §4
Cabbage leaves (Brassica oleracea) are treated by being dipped into the preparation of active compound of the desired concentration and are populated with caterpillars of the diamond back moth (Plutella xylostella, resistant strain), while the leaves are still moist.
After the desired period of time, the kill in % is determined. 100% means that all caterpillars have been killed; 0% means that none of the caterpillars have been killed. The kill rates determined are calculated using Colby's formula (see page 39).

[3] = test system: Phaedon cochleariae larvae; experiment: Phaedon cochleariae larvae test (cabbage leaf dip); conditions: Table B, 0.16 ppm
From the text: as §1, §2, §3
Phaedon cochleariae Larvae Test
To produce a suitable preparation of active compound, 1 part by weight of active compound is mixed with the stated amounts of solvent and emulsifier, and the concentrate is diluted with emulsifier-containing water to the desired concentration. […]
After the desired period of time, the kill in % is determined. […] The kill rates determined are calculated using Colby's formula (see page 39).

[4] = test system: Spodoptera frugiperda; experiment: Spodoptera frugiperda test (cabbage leaf dip); conditions: Table D, 0.032 ppm
From the text: as §1, §2, §3
Spodoptera frugiperda Test […]
After the desired period of time, the kill in % is determined: 100% means that all caterpillars have been killed; 0% means that none of the caterpillars have been killed. The kill rates determined are calculated using Colby's formula (see page 39).

Compound	Kill rate in % after 6 d, found ([1]; Table A2, 0.032 ppm) [%]	Kill rate in % after 6 d, found ([2]; Table C2, 0.0064 ppm) [%]	Kill rate in % after 3 d, found [3] [%]	Kill rate in % after 6 d, found [4] [%]	Kill rate in % after 6 d, found ([1]; Table A1, 4 ppm) [%]	Kill rate in % after 6 d, found ([1]; Table A2, 0.8 ppm) [%]	Kill rate in % after 6 d, found ([2]; Table C1, 0.0064 ppm) [%]	Kill rate in % after 6 d, found ([1]; Table A1, 0.16 ppm) [%]
CC1(C)C(/C=C(\Cl)C(F)(F)F)C1C(=O)OC(C#N)c1cccc(Oc2ccccc2)c1 (stereo not drawn) [(2-12) lambda-cyhalothrin, lambda-cyhalothrin]	0	0	–	–	–	–	–	–
Cc1cc(Cl)cc(C(=O)NC(C)C)c1NC(=O)c1cc(C(F)(F)F)nn1-c1ncccc1Cl [Example I-1-9]	–	10	0	75	15	0	0	–
CC1(C)C(C=C(Br)Br)C1C(=O)OC(C#N)c1cccc(Oc2ccccc2)c1 (stereo not drawn) [(2-6) deltamethrin, deltamethrin]	–	–	–	–	–	–	–	50
CC1(C)C(C=C(Cl)Cl)C1C(=O)OC(C#N)c1ccc(F)c(Oc2ccccc2)c1 (stereo not drawn) [(2-3) betacyfluthrin, betacyfluthrin]	–	–	15	0	–	–	0	–
